Laboratory results from patent US8329447B2, “Strain of Lactobacillus crispatus” (Osel, Inc., priority 2008, dated 2012).
“Also recorded” adds a separate entry of the source.

Tested on: SJ-3C cells
Experiment: Agar overlay disc diffusion antibiotic susceptibility
Assay type: cell-based, Lactobacillus crispatus
Settings: BBL Sensi-Disc on MRS agar overlay, 37° C. overnight anaerobically

Row | Molecule | antibiotic susceptibility or resistance of SJ-3C
1 | O=C(O)c1cn(C2CC2)c2cc(N3CCNCC3)c(F)cc2c1=O [ciprofloxacin] | resistance
2 | C[C@@H]1O[C@@H]1P(=O)(O)O [fosfomycin] | resistance
3 | CCC[C@@H]1C[C@@H](C(=O)N[C@@H]([C@H]2O[C@H](SC)[C@H](O)[C@@H](O)[C@H]2O)[C@@H](C)O)N(C)C1 [lincomycin] | resistance; also recorded: resistant
4 | Cc1ncc([N+](=O)[O-])n1CCO [metronidazole] | resistance
5 | Cc1noc(NS(=O)(=O)c2ccc(N)cc2)c1C [sulfisoxazole] | resistance
6 | gentamicin | resistance
7 | sulfamethoxazole-trimethoprim | resistance
